Patent US20110039763A1, “TARGETED ANTIMICROBIAL MOIETIES” (C3 JIAN, INC., priority 2009, published 2011)
Entries after “also recorded” stand apart in the source; their conditions may differ. Square brackets hold non-standard residues; d marks the D form. Ends that are not written are not given here. dOrn = NCCC[C@@H](N)C(=O)O; Orn = NCCC[C@H](N)C(=O)O

Assays:
microorganisms [1] = assay: Targeting peptide binding to target microorganisms (Tables 3, 10, 12); details: microorganism(s) the targeting peptide binds, preferably 1x PBS
microorganisms [2] = assay: Morphology, biofilm and growth disrupting peptides (Table 5); type: cell-based; parameters: key: A: Peptide aggregates; B: Less hyphal formation; Clumps; Diffuse clumps and small polyps; F: Diffuse growth; H: Thin; I: Growth inhibition; Microcolony formation; Rippled; Small polyps; Thick; W: Halo formation on top, microlonies on bottom
Text: In certain embodiments peptides that induce alterations in phenotype or other biological activities can also be used as antimicrobial effector moieties.

[3] = binding in aqueous buffers varied with peptide solubility
[4] = binding in aqueous buffers that varied with peptide solubility

**Q.** Which results are given for “PF-643 (chain 1 VRCRL; chain 2 VRCRL; Peptide with targeting and/or antimicrobial activity)”?
**A.** Target(s) (microorganisms [1]; [3]): Mycobacteria spp; Organism, effect (microorganisms [2]; E. faecalis): E. faecalis (R); Organism, effect (microorganisms [2]; MRSA): MRSA (C); Organism, effect (microorganisms [2]; S. pneumoniae): S. pneumoniae (R)

**Q.** “PF-644 (chain 1 TSGLIIGENGLNGL; chain 2 TSGLIIGENGLNGL; Peptide with targeting and/or antimicrobial activity)” was tested. Which “Target(s)” value (microorganisms [1]; [3]) did it give?
**A.** Mycobacteria spp

**Q.** And the “Organism, effect” value (microorganisms [2]; S. pneumoniae)?
**A.** S. pneumoniae (H)

**Q.** How did the “Target(s)” value (microorganisms [1]; [3]) turn out when “PF-645 (chain 1 SNSVQQG; chain 2 SNSVQQG; Peptide with targeting and/or antimicrobial activity)” was run?
**A.** Mycobacteria spp

**Q.** And the “Organism, effect” value (microorganisms [2]; C. albicans)?
**A.** C. albicans (B)

**Q.** And the “Organism, effect” value (microorganisms [2]; S. pneumoniae)?
**A.** S. pneumoniae (I)

**Q.** How did the “Target(s)” value (microorganisms [1]; [3]) turn out when “PF-646 (chain 1 APASPGRRPG; chain 2 APASPGRRPG; Peptide with targeting and/or antimicrobial activity)” was run?
**A.** Mycobacteria spp

**Q.** What about the “Organism, effect” value (microorganisms [2]; C. albicans) of the same substance?
**A.** C. albicans (B)

**Q.** What about the “Organism, effect” value (microorganisms [2]; S. pneumoniae) of the same substance?
**A.** S. pneumoniae (H)

**Q.** With “PF-647 (chain 1 GTFLGQKCAAATAS; chain 2 GTFLGQKCAAATAS; Peptide with targeting and/or antimicrobial activity)” as the substance, how does the “Target(s)” value (microorganisms [1]; [3]) read?
**A.** Mycobacteria spp

**Q.** What about the “Organism, effect” value (microorganisms [2]; C. albicans) of the same substance?
**A.** C. albicans (B)

**Q.** What about the “Organism, effect” value (microorganisms [2]; S. pneumoniae) of the same substance?
**A.** S. pneumoniae (R)

**Q.** With “PF-649 (chain 1 CPRYPFVDVGPAGPWRARWRVGS; chain 2 CPRYPFVDVGPAGPWRARWRVGS; Peptide with targeting and/or antimicrobial activity)” as the substance, how does the “Target(s)” value (microorganisms [1]; [3]) read?
**A.** Mycobacteria spp

**Q.** And the “Organism, effect” value (microorganisms [2]; E. faecalis)?
**A.** E. faecalis (R)

**Q.** Which “Target(s)” value (microorganisms [1]; [3]) does the source give for “PF-651 (chain 1 PRWPTGAGRHR; chain 2 PRWPTGAGRHR; Peptide with targeting and/or antimicrobial activity)” here?
**A.** Mycobacteria spp

**Q.** And the “Organism, effect” value (microorganisms [2]; S. pneumoniae)?
**A.** S. pneumoniae (H)

**Q.** How did the “Target(s)” value (microorganisms [1]; [3]) turn out when “PF-652 (chain 1 FLAPARPDLQAQRQALAQ; chain 2 FLAPARPDLQAQRQALAQ; Peptide with targeting and/or antimicrobial activity)” was run?
**A.** Mycobacteria spp

**Q.** And the “Organism, effect” value (microorganisms [2]; S. pneumoniae)?
**A.** S. pneumoniae (A)

**Q.** With “PF-653 (chain 1 QSVHPLPAETPVADVI; chain 2 QSVHPLPAETPVADVI; Peptide with targeting and/or antimicrobial activity)” as the substance, how does the “Target(s)” value (microorganisms [1]; [3]) read?
**A.** Mycobacteria spp

**Q.** And the “Organism, effect” value (microorganisms [2]; S. pneumoniae)?
**A.** S. pneumoniae (H)

**Q.** With “PF-654 (chain 1 LSGRLAGRR; chain 2 LSGRLAGRR; Peptide with targeting and/or antimicrobial activity)” as the substance, how does the “Target(s)” value (microorganisms [1]; [3]) read?
**A.** Mycobacteria spp

**Q.** What about the “Organism, effect” value (microorganisms [2]; C. albicans) of the same substance?
**A.** C. albicans (B)

**Q.** What about the “Organism, effect” value (microorganisms [2]; MRSA) of the same substance?
**A.** MRSA (R)

**Q.** And the “Organism, effect” value (microorganisms [2]; S. pneumoniae)?
**A.** S. pneumoniae (A)

**Q.** Which “Target(s)” value (microorganisms [1]; [3]) does the source give for “PF-656 (chain 1 RGMFVPFHDVDCVQ; chain 2 RGMFVPFHDVDCVQ; Peptide with targeting and/or antimicrobial activity)” here?
**A.** Mycobacteria spp

**Q.** And the “Organism, effect” value (microorganisms [2]; MRSA)?
**A.** MRSA (R)

**Q.** With “PF-C134 (NELMKYPATLTATATTPGIKYSHLCSVCL; Peptide with targeting and/or antimicrobial activity)” as the substance, how does the “Target(s)” value (microorganisms [1]; [3]) read?
**A.** A. naeslundii; also recorded: F. nucleatum; also recorded: P. gingivalis; also recorded: S. mutans; also recorded: T. denticola

**Q.** Which “Target(s)” value (microorganisms [1]; [3]) does the source give for “PF-C160 (AASGFTYCASNGVWHPY; Peptide with targeting and/or antimicrobial activity)” here?
**A.** F. nucleatum

**Q.** With “PF-C259 (AEIQPHCLSVL; Peptide with targeting and/or antimicrobial activity)” as the substance, how does the “Target(s)” value (microorganisms [1]; [3]) read?
**A.** F. nucleatum; also recorded: S. mutans

**Q.** For “PF-C271 (FFPSYYSIIITYF; Peptide with targeting and/or antimicrobial activity)”, which “Target(s)” value (microorganisms [1]; [3]) is on record?
**A.** A. naeslundii; also recorded: F. nucleatum; also recorded: P. gingivalis; also recorded: S. mutans; also recorded: T. denticola

**Q.** With “PF-C273 (KNMLKRRMKQKRLFDEEDRLRVLSKYTKSYY; Peptide with targeting and/or antimicrobial activity)” as the substance, how does the “Target(s)” value (microorganisms [1]; [3]) read?
**A.** A. naeslundii; also recorded: P. gingivalis; also recorded: S. mutans; also recorded: T. denticola

**Q.** With “PF-C285 (FTIIELKKQKIKHGENNKKTAHPLNEPFCARA; Peptide with targeting and/or antimicrobial activity)” as the substance, how does the “Target(s)” value (microorganisms [1]; [3]) read?
**A.** A. naeslundii; also recorded: F. nucleatum; also recorded: P. gingivalis; also recorded: S. mutans; also recorded: T. denticola

**Q.** With “PF-S004 (VLLNIFRTLLEFFSPSNAPGAEDVPLPDTQA; Peptide with targeting and/or antimicrobial activity)” as the substance, how does the “Target(s)” value (microorganisms [1]; [3]) read?
**A.** S. epidermidis and MRSA and C. jeikeium

**Q.** How did the “Target(s)” value (microorganisms [1]; [3]) turn out when “PF-S007 (VVAGVVLLTALAVGSKRKEKKQIKEIQRLLAATR; Peptide with targeting and/or antimicrobial activity)” was run?
**A.** S. epidermidis and MRSA

**Q.** With “PF-S015 (IENLERGARRPP; Peptide with targeting and/or antimicrobial activity)” as the substance, how does the “Target(s)” value (microorganisms [1]; [3]) read?
**A.** S. epidermidis and MRSA and C. jeikeium

**Q.** For “PF-S018 (GMPQIPRLRI; Peptide with targeting and/or antimicrobial activity)”, which “Target(s)” value (microorganisms [1]; [3]) is on record?
**A.** S. epidermidis and M. luteus and C. albicans and MRSA and E. faecalis and C. jeikeium and C. jejuni

**Q.** Which “Target(s)” value (microorganisms [1]; [3]) does the source give for “PF-S023 (MAEDERRALKRRTNRGRTRTRKRITV; Peptide with targeting and/or antimicrobial activity)” here?
**A.** S. epidermidis and MRSA

**Q.** Which “Target(s)” value (microorganisms [1]; [4]) does the source give for “PF-S024 (SKRGRKRKDRRKKKANHGKRPNS; Peptide with targeting and/or antimicrobial activity)” here?
**A.** Corynebacteria

**Q.** For “PF-S026 (TELKYNGEEYLLLTQRDILAVIEK; Peptide with targeting and/or antimicrobial activity)”, which “Target(s)” value (microorganisms [1]; [3]) is on record?
**A.** S. epidermidis and MRSA and C. jeikeium

**Q.** “PF-S029 (TSDTQSQSPWLFDNADIVNIYPVQLMHSSDND; Peptide with targeting and/or antimicrobial activity)” was tested. Which “Target(s)” value (microorganisms [1]; [3]) did it give?
**A.** M. luteus; also recorded: P. mirabilis; also recorded: E. coli; also recorded: C. albicans; also recorded: C. jeikeium; also recorded: C. jejuni

**Q.** For “Py Pf 12 ([dS]KG[Orn][dS]SGK[dOrn]ES; not fully specified (bridges))”, which “Target(s)” value (microorganisms [1]; [4]) is on record?
**A.** P. fluorescens

**Q.** How did the “Target(s)” value (microorganisms [1]; [4]) turn out when “TT-305 (ARNALNMRDVPVDAAIIGIIDGMDEE; Peptide with targeting and/or antimicrobial activity)” was run?
**A.** F. nucleatum

**Q.** “TT-306 (KILNEAEGKLLKVIEKNGEIDIEEI; Peptide with targeting and/or antimicrobial activity)” was tested. Which “Target(s)” value (microorganisms [1]; [4]) did it give?
**A.** F. nucleatum

**Q.** How did the “Target(s)” value (microorganisms [1]; [4]) turn out when “TT-307 (NGDKKAKEELDKWDEVIKELNIQF; Peptide with targeting and/or antimicrobial activity)” was run?
**A.** F. nucleatum

**Q.** For “TT-308 (GLVIIPNLIALIILFSQVRQQTKDYFSNPKLSSR; Peptide with targeting and/or antimicrobial activity)”, which “Target(s)” value (microorganisms [1]; [4]) is on record?
**A.** F. nucleatum

**Q.** Which “Target(s)” value (microorganisms [1]; [4]) does the source give for “TT-309 (EPLPLTKYDKKDTEMKKVFKEILAGKVGYEKEEE; Peptide with targeting and/or antimicrobial activity)” here?
**A.** F. nucleatum

**Q.** How did the “Target(s)” value (microorganisms [1]; [4]) turn out when “TT-310 (TKLKKNNKLLSAKKENTLHTKDK; Peptide with targeting and/or antimicrobial activity)” was run?
**A.** F. nucleatum

**Q.** With “TT-311 (AIFDAMHNL; Peptide with targeting and/or antimicrobial activity)” as the substance, how does the “Target(s)” value (microorganisms [1]; [4]) read?
**A.** S. mutans; also recorded: S. sobrinus
